Measured values reported in PMC3855387, “AMPK Activation through Mitochondrial Regulation Results in Increased Substrate Oxidation and Improved Metabolic Parameters in Models of Diabetes” (PLoS ONE, 2013).

Legend:
[1] = biological target: T1, respiratory complex I (mitochondrial complex I) (Mus musculus, UniProt P03888+Q91WD5+Q9DC70); assay: NADH oxidation (A340) in mouse liver mitochondrial lysate; succinate rescue of respiration in isolated mitochondria; format: biochemical
T1 construct: gene Ndufs2; native complex in mouse liver mitochondrial lysate

[2] = biological target: T1, respiratory complex I (mitochondrial complex I); assay: NADH oxidation (A340) in mouse liver mitochondrial lysate; format: biochemical

Structure (SMILES) | IC50 [1] [nM] | IC50 [2] [mM]
COc1ccc(C(=O)C2CCN(C(=O)c3ccc(C(=O)NC4CCN(Cc5ccc(C#N)cc5)CC4)cn3)CC2)cc1 [R419, N-(1-(4-cyanobenzyl)piperidin-4-yl)-6-(4-(4-methoxybenzoyl)piperidine-1-carbonyl)nicotinamide] | 82 | –
CN(C)C(=N)N=C(N)N [metformin] | – | 27
